Laboratory results published in patent US7893299B2, “Interleukin-1 and tumor necrosis factor-αmodulators; syntheses of such modulators and methods of using such modulators” (Nereus Pharmaceuticals, Inc., priority 2005, dated 2011).
Read-outs that look alike come from different tables or passages of the source.

How the values were obtained:
Panc1 and HS766T = experiment: TRAIL resistance of human pancreatic cancer cell lines; format: cell-based
Text: (§1) Novel diterpene inhibitors of NFκB derived from acanthoic acid (NPI-1342 (Formula IIB-a1) and NPI-1387; compound 24 under scheme 4 above) show measurable effects in human pancreatic cancer cell lines in vitro. Seven of the nine cell lines were moderately sensitive to apoptosis induced by death receptor ligand Tumor Necrosis Factor (TNF) related apoptosis-inducing ligand (TRAIL). […] Specific silencing of NFkB/p65 expression mimicked these effects. Furthermore, combination treatment of Salinosporamide A and either NPI-1342 or NPI-1387 led to induction of apoptosis as measured by PI FACS analysis. Specifically, levels of DNA fragmentation increased from 4% to 50% in HS766T cells and from 4% to 52% in Panc1 cells. The inhibitory effects of NPI-1342, NPI-1387 on NFκB were evaluated by Electromobility Shift Assays and confirmed by confocal microscopy.

Panc1 cells = experiment: apoptosis by PI FACS analysis, Panc1; format: cell-based, human; conditions: combination treatment with Salinosporamide A, increased from 4%
Text: as §1

HS766T cells = experiment: apoptosis by PI FACS analysis, HS766T; format: cell-based, human; conditions: combination treatment with Salinosporamide A, increased from 4%
Text: as §1

[1] = test system: TNF-α and IL-1 production; conditions: approximately 0.1 to approximately 1.0 microgram/ml for 48 hours; cited from earlier work
IL-6 or IFN-γ production = conditions: under the same conditions; cited from earlier work
[2] = rat, in vivo; cited from earlier work
[3] = mice, cited from earlier work; for toxicity (in words): mice and rats
[4] = test system: silicosis (chronic lung inflammation) and cirrhosis (liver inflammation and hepatic fibrosis); conditions: mice with silicosis and cirrhosis; cited from earlier work

Compound	TRAIL resistance (Panc1 and HS766T)	levels of DNA fragmentation (Panc1 cells)	levels of DNA fragmentation (HS766T cells)	inhibition of the TNF-α and IL-1 production [1]	production of IL-6 or IFN-γ (IL-6 or IFN-γ production)	minimum lethal dose (MLD) [2]	LD ([3]; orally)	toxicity (in words) [3]	toxicity (in words) ([3]; listed as Compound 1)	histologic analysis: fibrotic granulomas and cirrotic liver cells [4]
C=C[C@@]1(C)CCC=C2[C@H]1CC[C@@H]1[C@](C)(C(=O)NC3CCCCC3)CCC[C@@]21C (stereo in doubt) [Formula (IIB-A1), N-Cyclohexylamide Derivative of TTL]	reversed TRAIL resistance	52%	50%	–	–	–	–	–	–	–
C=C[C@@]1(C)CC=C2[C@@H](CC[C@@H]3[C@](C)(C(=O)O)CCC[C@@]23C)C1 [Formula (I), acanthoic acid]	–	–	–	approximately 90%	not affected	1000 mg/kg	> 300 mg/100 g of body weight	minimal toxicity	very little toxicity	substantial reduction of fibrotic granulomas and a remarkable recovery of the cirrotic liver cells
